Legend:
HEp-2 = test: MTT cytotoxicity, 72 h; type: cell-based, human; details: Homo sapiens, HEp-2, 72 h of incubation
Method: (§1) The cytotoxicity assessment was performed against three human cancer cell lines in suspension (K562, HL-60 and MOLT-4) and four adhered (HEp-2, NCI-H292, HT-29 and MCF-7).
(§2) The cells were obtained from the Cell Bank of Rio de Janeiro and maintained in the Laboratory of Cell Culture of the Department of Antibiotics of the Federal University of Pernambuco. The lines K562 (myeloblastic leukaemia), HL-60 (promyelocytic leukemia) and MOLT-4 (lymphoblastic leukemia) were cultured in RPMI 1640 medium and the lines HEp-2 (larynx carcinoma), NCI-H292 (lung carcinoma), HT-29 (colon adenocarcinoma) and MCF-7 (breast adenocarcinoma) were cultured in DMEM medium, supplemented with 10% fetal bovine serum, 2 mM glutamine, 100 U/mL penicillin and 100 μg/mL streptomycin (Gibco™ Life Technologies), at 37 °C and 5% CO2.
(§3) The evaluation of the cytotoxicity of the compounds was performed by the method of 3-(4,5-dimethyl-2-thiazolyl)-2,5-diphenyl-2H-tetrazolium bromide (MTT) (Sigma Aldrich Co., St. Louis, MO, USA). To perform the assay the cells were seeded in 96-well plates at the following concentrations: HL-60 and K562 (0.3 × 10^6 cells/mL); MOLT-4 and PBMC (10^6 cells/mL); NCI-H292, HT-29, HEp-2 e MCF-7 (10^5 cells/mL). Briefly, the compounds previously dissolved in DMSO (dimethylsulfoxide, Vetec, São Paulo, Brazil), were diluted in medium and added to each well at the desired concentrations. For the calculation of the concentration that inhibits 50% of cell growth (IC50) the compounds were serially diluted to obtain the final concentrations between 0.19–25 μg/mL. Doxorubicin was used as the standard in the concentration range between (0.078–10 μg/mL). After 72 h of contact of the cells with the compounds, it was added to each well 25 μL of MTT solution (5 mg/mL). Plates were left for another 3 h in incubator at 37 °C and at the end of that period the supernatant was aspirated. To perform the reading, 100 μL of DMSO was added in each well for the dissolution of the formazan crystals. The amount of formazan was measured by reading the plate at 560 nm absorbance. The IC50 was calculated from the nonlinear regression in the Prisma 7.0 software (GraphPad, San Diego, CA, USA). Each sample was tested in triplicate in three independent experiments.

HL-60 = test: MTT cytotoxicity, 72 h; type: cell-based, human; details: for selectivity index (SI = IC50 PBMC/ IC50 cancer cells): HL-60 versus PBMC; for IC50: Homo sapiens, HL-60, MTT, 72 h of incubation
Method: as §1, §2, §3

HT-29 = test: MTT cytotoxicity, 72 h; type: cell-based, human; details: Homo sapiens, HT-29, 72 h of incubation
Method: as §1, §2, §3

K562 = test: MTT cytotoxicity, 72 h; type: cell-based, human; details: Homo sapiens, K562, 72 h of incubation
Method: as §1, §2, §3

MCF-7 = test: MTT cytotoxicity, 72 h; type: cell-based, human; details: Homo sapiens, MCF7, 72 h of incubation
Method: as §1, §2, §3

MOLT-4 = test: MTT cytotoxicity, 72 h; type: cell-based, human; details: Homo sapiens, MOLT-4, 72 h of incubation
Method: as §1, §2, §3

NCI-H292 = test: MTT cytotoxicity, 72 h; type: cell-based, human; details: Homo sapiens, NCI-H292, 72 h of incubation
Method: as §1, §2, §3

[1] = system: Peripheral Blood Mononuclear Cells (PBMCs); test: MTT cytotoxicity in normal cells, 72 h; type: cell-based, human; details: Homo sapiens, PBMC, 72 h of incubation
Method: In order to evaluate the cytotoxic potential in normal cells, all the derivatives were tested against Peripheral Blood Mononuclear Cells (PBMCs) and the most promising compounds were again compounds 3c and 4a, which offered more selectivity against the cancer cells.
Mononuclear cells were obtained from the peripheral blood of healthy volunteers by heparin tube collection and isolated by Ficoll-Histopaque gradient centrifugation. After centrifugation, the cells were harvested, washed and resuspended in RPMI 1640 medium supplemented with 20% fetal bovine serum, 2 mM glutamine, 100 U/mL penicillin and 100 μg/mL streptomycin (Gibco™ Life Technologies, Waltham, MA, USA). The phytohemagglutinin mitogen 2% was also added into the culture medium. After that, using the neubauer chamber, the cells were counted and plated in a 96-well plate at a concentration of 10^6 cells/mL and then were maintained for overnight under incubation at 37 °C and 5% CO2 [65].
as §3

CDK5/p25 = target: T1, CDK5/p25 (Homo sapiens, UniProt Q00535); test: Kinase inhibition assay (ADP-Glo); type: biochemical; details: 10 µM ATP
T1 construct: made in house; host or cells: bacteria
T1 sequence (Q00535 whole entry): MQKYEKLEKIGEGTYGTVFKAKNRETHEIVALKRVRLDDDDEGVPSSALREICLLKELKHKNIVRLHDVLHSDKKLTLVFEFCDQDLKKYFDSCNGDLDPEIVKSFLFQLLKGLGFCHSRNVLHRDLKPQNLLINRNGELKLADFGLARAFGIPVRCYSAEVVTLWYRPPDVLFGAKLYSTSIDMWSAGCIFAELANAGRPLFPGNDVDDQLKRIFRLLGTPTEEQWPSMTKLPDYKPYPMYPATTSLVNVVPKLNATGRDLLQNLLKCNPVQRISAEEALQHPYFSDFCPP
T1 sequence (Q15078 99-307 partner limits assumed): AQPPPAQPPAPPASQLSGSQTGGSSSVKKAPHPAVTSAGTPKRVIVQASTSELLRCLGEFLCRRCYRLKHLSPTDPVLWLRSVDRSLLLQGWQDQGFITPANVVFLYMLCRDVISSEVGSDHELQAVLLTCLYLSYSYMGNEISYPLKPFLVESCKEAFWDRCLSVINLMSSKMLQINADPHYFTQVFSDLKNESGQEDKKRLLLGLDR
Method: HsCDK5/p25 (human, recombinant, expressed in bacteria) was assayed in buffer A, with 0.8 µg/µL of histone H1 as substrate.

PIM1 = target: T2, PIM1 (Homo sapiens, UniProt P11309); test: Kinase inhibition assay (ADP-Glo); type: biochemical; details: 10 µM ATP
T2 construct: made in house; host or cells: bacteria
T2 sequence (P11309 whole entry): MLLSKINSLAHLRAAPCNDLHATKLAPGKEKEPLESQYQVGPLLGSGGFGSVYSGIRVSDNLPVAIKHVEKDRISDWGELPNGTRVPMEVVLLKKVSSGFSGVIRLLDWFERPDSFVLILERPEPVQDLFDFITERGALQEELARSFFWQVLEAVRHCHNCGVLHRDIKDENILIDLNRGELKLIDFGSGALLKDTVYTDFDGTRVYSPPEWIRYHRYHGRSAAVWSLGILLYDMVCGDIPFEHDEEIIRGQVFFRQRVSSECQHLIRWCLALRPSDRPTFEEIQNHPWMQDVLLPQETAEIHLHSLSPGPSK
Method: HsPIM1 (human proto-oncogene, recombinant, expressed in bacteria) was assayed in buffer B with 0.8 µg/µL of histone H1 (Sigma #H5505) as substrate.

DYRK1A = target: T3, DYRK1A (Rattus norvegicus, UniProt Q63470); test: Kinase inhibition assay (ADP-Glo); type: biochemical; details: 10 µM ATP
T3 construct: amino acids 1 to 499 including the kinase domain; made in house; host or cells: bacteria
Method: RnDYRK1A (Rattus norvegicus, amino acids 1 to 499 including the kinase domain, recombinant, expressed in bacteria, DNA vector kindly provided by Dr. W. Becker, Aachen, Germany) was assayed in buffer A with 0.033 μg/µL of the following peptide: KKISGRLSPIMTEQ as substrate.

CK1δ/ε = test: Kinase inhibition assay (ADP-Glo); type: biochemical, Sus scrofa domesticus; details: 10 µM ATP
Method: SscCK1δ/ε (Sus scrofa domesticus, casein kinase 1δ/ε, affinity purified from porcine brain) was assayed in buffer A, with 0.022 μg/μL of the following peptide: RRKHAAIGSpAYSITA (“Sp” stands for phosphorylated serine) as CK1-specific substrate.

GSK3 α/β = test: Kinase inhibition assay (ADP-Glo); type: biochemical, Sus scrofa domesticus; details: 10 µM ATP
Method: SscGSK-3α/β (Sus scrofa domesticus, glycogen synthase kinase-3, affinity purified from porcine brain) was assayed in buffer A with 0.010 µg/µL of GS-1 peptide, a GSK-3-selective substrate ([…]pEDEEE, “Sp” stands for phosphorylated serine).

AURKB = target: T4, AURKB (Homo sapiens, UniProt Q96GD4); test: Kinase inhibition assay (ADP-Glo); type: biochemical; details: 10 µM ATP
T4 construct: purchased SignalChem A31-10G; host or cells: Sf9 insect cells (baculovirus)
T4 sequence (Q96GD4 whole entry): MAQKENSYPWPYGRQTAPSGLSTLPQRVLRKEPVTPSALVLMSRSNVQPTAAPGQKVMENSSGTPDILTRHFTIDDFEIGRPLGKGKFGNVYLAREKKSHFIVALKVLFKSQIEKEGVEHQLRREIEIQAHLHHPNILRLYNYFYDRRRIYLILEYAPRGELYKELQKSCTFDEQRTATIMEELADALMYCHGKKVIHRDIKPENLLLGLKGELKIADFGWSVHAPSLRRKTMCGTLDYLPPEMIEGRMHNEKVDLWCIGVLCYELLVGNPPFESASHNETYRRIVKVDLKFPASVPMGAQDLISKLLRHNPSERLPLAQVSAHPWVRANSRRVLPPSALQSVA

CDK9/CyclinT = CDK9/CyclinT (Homo sapiens, UniProt P50750); test: Kinase inhibition assay (ADP-Glo)
Sequence of CDK9/CyclinT (P50750 whole entry): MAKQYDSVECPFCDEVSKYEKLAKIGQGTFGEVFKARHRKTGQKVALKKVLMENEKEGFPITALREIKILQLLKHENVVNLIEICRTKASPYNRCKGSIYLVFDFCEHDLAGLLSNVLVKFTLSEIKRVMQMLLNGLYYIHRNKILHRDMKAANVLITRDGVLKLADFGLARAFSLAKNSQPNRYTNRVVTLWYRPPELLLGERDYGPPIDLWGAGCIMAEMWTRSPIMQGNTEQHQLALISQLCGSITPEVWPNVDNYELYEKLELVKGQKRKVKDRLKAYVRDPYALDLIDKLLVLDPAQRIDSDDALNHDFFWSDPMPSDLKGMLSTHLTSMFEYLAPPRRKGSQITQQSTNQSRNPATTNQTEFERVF
Sequence of CDK9/CyclinT (O60563 whole entry partner): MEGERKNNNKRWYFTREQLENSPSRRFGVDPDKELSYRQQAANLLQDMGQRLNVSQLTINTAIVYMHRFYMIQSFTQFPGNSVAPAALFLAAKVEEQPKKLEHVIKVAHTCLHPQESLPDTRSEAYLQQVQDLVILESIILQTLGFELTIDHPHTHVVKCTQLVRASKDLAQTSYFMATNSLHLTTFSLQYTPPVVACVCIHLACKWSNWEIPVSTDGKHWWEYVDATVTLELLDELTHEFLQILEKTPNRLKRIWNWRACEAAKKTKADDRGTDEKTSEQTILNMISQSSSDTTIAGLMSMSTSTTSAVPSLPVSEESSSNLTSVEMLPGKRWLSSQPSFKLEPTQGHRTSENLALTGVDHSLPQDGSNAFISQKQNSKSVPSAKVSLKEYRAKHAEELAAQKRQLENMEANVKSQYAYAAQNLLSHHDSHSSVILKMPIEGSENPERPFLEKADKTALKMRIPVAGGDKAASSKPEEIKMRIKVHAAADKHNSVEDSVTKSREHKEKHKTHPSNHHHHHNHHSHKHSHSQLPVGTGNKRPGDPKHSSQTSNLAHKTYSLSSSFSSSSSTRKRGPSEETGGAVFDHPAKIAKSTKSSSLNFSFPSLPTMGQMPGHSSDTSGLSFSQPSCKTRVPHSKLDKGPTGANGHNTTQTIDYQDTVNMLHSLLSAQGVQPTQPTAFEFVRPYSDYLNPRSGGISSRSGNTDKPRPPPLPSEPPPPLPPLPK
Method: The protein kinases studied were: CDK2/CyclinA, CDK5/p25, CDK9/CyclinT (cyclin-dependent kinases), HASPIN (haploid germ cell-specific nuclear protein kinase), PIM1 (PIM family kinase 1), CLK1 (cdc2-like kinase 1), DYRK1A (dual-specificity tyrosine phosphorylation regulated kinase), CK1δ/ε (casein kinase 1 isoforms), GSK3α/β (glycogen synthase kinase 3) and AURKB (aurora kinase B). Initially, all compounds were first tested at 10 μM. […] Compounds displaying more than 50% inhibition at 10 μM were next tested over a wide range of concentrations (usually 0.01–10 μM), and IC50 values were determined from the dose-response curves (Sigma-Plot).
Kinase activities were assayed in appropriate kinase buffer, with either protein or peptide as substrate in the presence of 10 µM ATP in a final volume of 6 µL using the ADP-Glo^TM assay kit (Promega, Madison, WI, USA, as described in Zegzouti et al. [66]). Controls were performed with appropriate dilutions of dimethylsulfoxide (solvent of the tested compounds).
The buffers used for kinase assays are the following: (A) 10 mM MgCl2, 1 mM EGTA, 1 mM DTT, 25 mM Tris-HCl pH 7.5, 50 µg/mL heparin; (B) 25 mM MOPS, pH 7.2, 12.5 mM -glycerolphosphate, 25 mM MgCl2, 5 mM EGTA, 2 mM EDTA, 0.25 mM DTT.

Row | SMILES | IC50 (HEp-2) [µM] | selectivity index (SI = IC50 PBMC/ IC50 cancer cells) (HL-60) | IC50 (HL-60) [µM] | IC50 (HT-29) [µM] | IC50 (K562) [µM] | IC50 (MCF-7) [µM] | IC50 (MOLT-4) [µM] | IC50 (NCI-H292) [µM] | IC50 [1] [µM] | IC50 (CDK5/p25) [µM] | IC50 (PIM1) [µM] | IC50 (DYRK1A) [µM] | IC50 (CK1δ/ε) [µM] | IC50 (GSK3 α/β) [µM] | IC50 (AURKB) [µM] | IC50 (CDK9/CyclinT) [µM]
1 | NC(=O)N/N=C/c1c(O)ccc2ccccc12 [Compound 3c, 2-Hydroxynaphthaldehyde Semicarbazone] | 37.1 ± 1.5 | 6.2 | 13.1 ± 0.62 | 40.6 ± 1.02 | 52.3 ± 1.15 | 34 ± 1.06 | 41 ± 0.7 | 56.3 ± 3.05 | 82 ± 1.63 | 0.35 | 0.52 | 0.073 | > 10 | > 10 | 5.1 | 0.86
2 | Cc1ccc(C=NNC(N)=O)cc1 [Compound 3g, 4-Methylbenzaldehyde Semicarbazone] | 24.3 ± 0.97 |  | 48.5 ± 1.63 | > 100 | 33.3 ± 0.71 | > 100 | 56.4 ± 0.97 | > 100 | > 100 | > 10 | > 10 | > 10 | > 10 | > 10 | > 10 | > 10
3 | CCCCN(N=Cc1ccc([N+](=O)[O-])o1)C(N)=O [Compound 4a, 5-Nitro-2-(N^2-n-butyl)furfuraldehyde Semicarbazone] | 34.4 ± 0.88 | 4.5 | 11.4 ± 0.27 | 36.3 ± 0.97 | 24.2 ± 1.15 | 33.6 ± 0.71 | 19.5 ± 0.62 | 37.9 ± 1.5 | 51.2 ± 0.75 | > 10 | > 10 | > 10 | 0.76 | > 10 | > 10 | > 10

From paper PMC6958387, “Biological Evaluation of Arylsemicarbazone Derivatives as Potential Anticancer Agents” (Pharmaceuticals, 2019)
